Measurements as given in patent US12319672B2, “Alpha-D-galactopyranoside derivatives” (Idorsia Pharmaceuticals Ltd, priority 2019, dated 2025).

Key:
human Gal-3 (hGal-3) = human Gal-3 (hGal-3) (Homo sapiens (Human), UniProt P17931); assay: Competitive binding assay: binding of biotinylated hGal-3 to microplate-adsorbed asialofetuin (ASF); conditions: Activity on hGal-3; mean values of several measurements
Outline: (§1)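 Spectrophotometric readout (streptavidin-peroxidase, ABTS) of biotinylated galectin retained on ASF-coated wells. Biotinylated hGal-1 or hGal-3, 300-1000 ng/mL, co-incubated with test compound 3 h at 4° C, then washed. Mean IC50 from repeat runs.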

human Gal-1 (hGal-1) = assay: Competitive binding assay: binding of biotinylated hGal-1 to microplate-adsorbed asialofetuin (ASF); conditions: Activities on hGal-1; mean values of several measurements
Chain of human Gal-1 (hGal-1) (P09382 2-135 limits assumed): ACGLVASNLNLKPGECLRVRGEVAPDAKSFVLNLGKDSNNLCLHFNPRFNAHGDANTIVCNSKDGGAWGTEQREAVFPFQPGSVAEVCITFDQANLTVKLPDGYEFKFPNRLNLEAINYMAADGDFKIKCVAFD
Outline: as §1

Chain of human Gal-3 (hGal-3) (P17931 whole entry): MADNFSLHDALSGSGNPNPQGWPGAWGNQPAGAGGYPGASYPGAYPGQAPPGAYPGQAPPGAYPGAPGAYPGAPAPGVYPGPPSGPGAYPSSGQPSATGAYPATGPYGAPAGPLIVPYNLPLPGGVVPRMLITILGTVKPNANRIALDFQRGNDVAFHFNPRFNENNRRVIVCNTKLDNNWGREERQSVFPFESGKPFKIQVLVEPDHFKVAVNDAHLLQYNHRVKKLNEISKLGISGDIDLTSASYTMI

CO[C@@H]1[C@@H](n2cc(-c3ccc(Cl)c(F)c3F)nn2)[C@@H](O)[C@@H](CO)O[C@@H]1Cn1cc(C(C)(C)C)nn1 [Example 4.55, (2R,3R,4S,5R,6R)-6-((4-(tert-butyl)-1H-1,2,3-triazol-1-yl)methyl)-4-(4-(4-chloro-2,3-difluorophenyl)-1H-1,2,3-triazol-1-yl)-2-(hydroxymethyl)-5-methoxytetrahydro-2H-pyran-3-ol]
IC50 (human Gal-3 (hGal-3)): 31 nM
IC50 (human Gal-1 (hGal-1)): 950 nM

CO[C@@H]1[C@@H](n2cc(-c3cc(F)c(F)c(F)c3)nn2)[C@@H](O)[C@@H](CO)O[C@@H]1C[C@H]1CC(C2CCNCC2)=NO1 [Example 3.07, (2R,3R,4S,5R,6R)-2-(hydroxymethyl)-5-methoxy-6-(((R)-3-(piperidin-4-yl)-4,5-dihydroisoxazol-5-yl)methyl)-4-(4-(3,4,5-trifluorophenyl)-1H-1,2,3-triazol-1-yl)tetrahydro-2H-pyran-3-ol]
IC50 (human Gal-3 (hGal-3)): 1860 nM
IC50 (human Gal-1 (hGal-1)): 15100 nM

CO[C@@H]1[C@@H](n2cc(-c3cc(F)c(F)c(F)c3)nn2)[C@@H](O)[C@@H](CO)O[C@@H]1CC1CN(C2CCN(C(C)=O)CC2)C(=O)O1 (mixture of isomers) [Example 5.03, (RS)-3-(1-acetylpiperidin-4-yl)-5-(((2R,3R,4S,5R,6R)-5-hydroxy-6-(hydroxymethyl)-3-methoxy-4-(4-(3,4,5-trifluorophenyl)-1H-1,2,3-triazol-1-yl)tetrahydro-2H-pyran-2-yl)methyl)oxazolidin-2-one]
IC50 (human Gal-3 (hGal-3)): 120 nM
IC50 (human Gal-1 (hGal-1)): 650 nM

CO[C@@H]1[C@@H](n2cc(-c3ccc(C)c(F)c3F)nn2)[C@@H](O)[C@@H](CO)O[C@@H]1Cc1cc(C2(O)CCC2)on1 [Ex 1.241]
IC50 (human Gal-3 (hGal-3)): 79 nM
IC50 (human Gal-1 (hGal-1)): 2580 nM

CO[C@@H]1[C@@H](n2cc(-c3cc(F)c(F)c(F)c3)nn2)[C@@H](O)[C@@H](CO)O[C@@H]1Cc1cc(C2CCN(S(=O)(=O)N3CCCC3)CC2)on1 [Example 3.64, (2R,3R,4S,5R,6R)-2-(hydroxymethyl)-5-methoxy-6-((5-(1-(pyrrolidin-1-ylsulfonyl)piperidin-4-yl)isoxazol-3-yl)methyl)-4-(4-(3,4,5-trifluorophenyl)-1H-1,2,3-triazol-1-yl)tetrahydro-2H-pyran-3-ol]
IC50 (human Gal-3 (hGal-3)): 25 nM
IC50 (human Gal-1 (hGal-1)): 760 nM

CO[C@@H]1[C@@H](n2cc(-c3cc(F)c(F)c(F)c3)nn2)[C@@H](O)[C@@H](CO)O[C@@H]1Cc1cc(C)no1 [Ex 1.306]
IC50 (human Gal-3 (hGal-3)): 1220 nM
IC50 (human Gal-1 (hGal-1)): 6190 nM

CO[C@@H]1[C@@H](n2cc(-c3cc(F)c(Cl)c(F)c3)nn2)[C@@H](O)[C@@H](CO)O[C@@H]1CC1CC(C2CCNCC2)=NO1 (stereo partly drawn) [Ex 1.146]
IC50 (human Gal-3 (hGal-3)): 240 nM
IC50 (human Gal-1 (hGal-1)): 4660 nM

CO[C@@H]1[C@@H](n2cc(-c3cc(F)c(F)c(F)c3)nn2)[C@@H](O)[C@@H](CO)O[C@@H]1Cc1cn(C2CCS(=O)(=NC(C)C)CC2)nn1 (stereo partly drawn) [Example 4.31, 4-(4-(((2R,3R,4S,5R,6R)-5-hydroxy-6-(hydroxymethyl)-3-methoxy-4-(4-(3,4,5-trifluorophenyl)-1H-1,2,3-triazol-1-yl)tetrahydro-2H-pyran-2-yl)methyl)-1H-1,2,3-triazol-1-yl)-1-(isopropylimino)hexahydro-1l6-thiopyran 1-oxide]
IC50 (human Gal-3 (hGal-3)): 27 nM
IC50 (human Gal-1 (hGal-1)): 320 nM

OCCC1CC(C[C@H]2O[C@H](CO)[C@H](O)[C@H](n3cc(-c4cc(F)c(F)c(F)c4)nn3)[C@H]2O)=NO1 (stereo partly drawn) [Ex 1.38]
IC50 (human Gal-3 (hGal-3)): 1420 nM
IC50 (human Gal-1 (hGal-1)): 15900 nM

CC(=O)O[C@@H]1[C@@H](n2cc(-c3cc(F)c(F)c(F)c3)nn2)[C@@H](O)[C@@H](CO)O[C@@H]1Cc1cc(C2CCN(C(=O)OC(C)(C)C)CC2)on1 [Ex 1.49]
IC50 (human Gal-3 (hGal-3)): 78 nM
IC50 (human Gal-1 (hGal-1)): 2450 nM

CO[C@@H]1[C@@H](n2cc(-c3ccc(F)c(F)c3F)nn2)[C@@H](O)[C@@H](CO)O[C@@H]1Cc1cc(C2(C)COC2)no1 [Ex 1.252]
IC50 (human Gal-3 (hGal-3)): 69 nM
IC50 (human Gal-1 (hGal-1)): 280 nM

CO[C@@H]1[C@@H](n2cc(-c3ccc(Br)c(F)c3)nn2)[C@@H](O)[C@@H](CO)O[C@@H]1Cc1cc(C2CCN(C(=O)OC(C)(C)C)CC2)no1 [Ex 1.125]
IC50 (human Gal-3 (hGal-3)): 140 nM
IC50 (human Gal-1 (hGal-1)): 1000 nM
